This is an account of results in ChEMBL document CHEMBL1155817, “Hanultarin, a cytotoxic lignan as an inhibitor of actin cytoskeleton polymerization from the seeds of Trichosanthes kirilowii” (Bioorg Med Chem, 2008).

Values after ≈ are worked out from the molar mass of the structure shown. Active and inactive are the calls of the source. No cut-off for these calls is given here. Bounds are passed on as bounds.

In one assay the test system is SK-MEL-2. As to the kind of experiment: Cytotoxicity against human SK-MEL-2 cells after 48 hrs by SRB assay. It is filed as functional, cell-based. The note with it: SK-MEL-2, 48 h. On the technique in general: The SRB assay estimates cell density from bound dye.
Assay [1] concerns HaCaT. Put plainly: Inhibition of actin polymerization in human HaCaT cells assessed as aggregate-like structure at 12 ug/mL by immunofluorescence technique. It is filed as cell-based.
In another assay the test system is A549. Put plainly: Cytotoxicity against human A549 cells after 48 hrs by SRB assay. It is filed as functional, cell-based. The note with it: A549, 48 h.
Assay [2] is described as follows: Cytotoxicity against mouse B16F1 cells after 48 hrs by SRB assay. It is filed as functional, cell-based. The note with it: B16-F1, 48 h.
Assay [3] has as its system HaCaT. As to the kind of experiment: Inhibition of actin polymerization in human HaCaT cells assessed as aggregate-like structure at 40 ug/mL by immunofluorescence technique. It is filed as cell-based.
Assay [4] deals with HaCaT. As to the kind of experiment: Inhibition of actin polymerization in human HaCaT cells assessed as aggregate-like structure at 1 ug/mL by immunofluorescence technique. It is filed as cell-based.
In assay [5] the test system is HaCaT. Put plainly: Inhibition of actin polymerization in human HaCaT cells assessed as aggregate-like structure at 3.5 ug/mL by immunofluorescence technique. It is filed as cell-based.
In assay [6] the test system is HaCaT. Put plainly: Inhibition of actin polymerization in human HaCaT cells assessed as aggregate-like structure by immunofluorescence technique. It is filed as cell-based.

Regarding `COc1cc(/C=C/C(=O)OC[C@H](Cc2ccc(O)c(OC)c2)[C@H](COC(=O)/C=C/c2ccc(O)c(OC)c2)Cc2ccc(O)c(OC)c2)ccc1O`, the half-maximal inhibitory concentration (IC50) was 10 µg/mL (≈ 14 µM) with SK-MEL-2, 12 µg/mL (≈ 16.8 µM) with A549 and 12 µg/mL (≈ 16.8 µM) in assay [2]. In addition, the outcome in the assay on HaCaT [1] was Active.

On to `COc1cc([C@H]2OC(=O)[C@H]3[C@@H]2CO[C@@H]3c2ccc(O)c(OC)c2)ccc1O`, for which the IC50 in the assay on SK-MEL-2 was 20 µg/mL (≈ 53.7 µM); in the assay on A549 it was over 40 µg/mL; in assay [2], 13 µg/mL (≈ 34.9 µM). Moreover, the outcome in the assay on HaCaT [3] was inactive.

In the case of `C=C1[C@@H](C)[C@H]2[C@H](Cc3ccccc3)NC(=O)[C@]23[C@H](OC(C)=O)/C=C/[C@@](C)(O)C(=O)[C@@H](C)C/C=C/[C@H]3[C@@H]1O`, the result in the assay on HaCaT [4] was Active.

For the molecule `COc1cc([C@@H]2OC[C@@H]3[C@H]2CO[C@H]3c2ccc(O)c(OC)c2)ccc1O` [(+)-PINORESINOL], the IC50 (with SK-MEL-2; in the assay on A549; in assay [2]) was over 40 µg/mL throughout. Also, in the assay with HaCaT [3], the result was inactive.

With `COc1cc(C[C@@H](CO)[C@H](CO)Cc2ccc(O)c(OC)c2)ccc1O` [(+)-SECOISOLARICIRESINOL], the half-inhibitory concentration (IC50) (in the assay on SK-MEL-2; with A549; in assay [2]) was over 40 µg/mL in each case. For the same molecule, the outcome in the assay on HaCaT [3] was inactive.

`COc1cc(/C=C/C(=O)OC[C@H](Cc2ccc(O)c(OC)c2)[C@H](CO)Cc2ccc(O)c(OC)c2)ccc1O` [HANULTARIN]: the outcome in the assay on HaCaT [5] was Active. The figures for the 50% inhibitory concentration (IC50) (in the assay on SK-MEL-2; in the assay with A549; in assay [2]) were 3 µg/mL (≈ 5.57 µM), 3 µg/mL (≈ 5.57 µM) and 13 µg/mL (≈ 24.1 µM), respectively. Also, the Activity entry in the assay with HaCaT [6] was “Dose-dependent effect”.

Broadly, the IC50 is the concentration needed to halve the response being measured. A high value points to weaker potency.
